Entries after “also recorded” stand apart in the source; their conditions may differ. Read-outs that look alike come from different tables or passages of the source.
Assays:
[1] = biological target: T1, ATX (recombinant full-length human ATX), PDE activity (Homo sapiens, UniProt Q13822); experiment: Steady-state ATX phosphodiesterase (PDE) activity with pNP-TMP, absorbance 405 nm; format: biochemical; settings: substrate pNP-TMP; for Ki: 25° C.
T1 construct: consistent with a mature, glycosylated form of the enzyme; TEV cleavage site (C); 9-His (C); 6-His (C); made in house; host or cells: High Five insect cells (baculovirus, p-DEST-8)
Text: Protein expression and purification: The full length human NPP2 gene (NCBI accession #BC034961) followed by a C-terminal TEV cleavage site and a 9-His and 6-His purification tag was cloned and transferred into a p-DEST-8 baculovirus shuttle vector (Invitrogen), and bacmid DNA was generated by standard methods. The DNA sequence and correct transposition of the genes was verified by PCR, and recombinant full-length human ATX was expressed in High Five insect cells using standard methods. Three days post infection, the supernatant was adjusted to a final concentration of 50 mM Tris pH 8.0, 5 mM CaCl2, and 1 mM NiSO4 and stirred for 10 min. at room temperature. The resulting precipitant was removed by centrifugation (4,420×g for 30 minutes) and filtration ([…]), and the supernatant was concentrated using a Pall concentration system to approximately 250 mL. The cell media was passed over a nickel affinity column (5 mL, Fastflow resin), equilibrated in binding buffer (20 mM Tris pH 8.0, 300 mM NaCl, 20 mM imidazole, and 20% ethylene glycol) at 4° C., washed with 10 column volumes of binding buffer, and then eluted with binding buffer supplemented with 300 mM imidazole. Purified ATX was concentrated to approximately 10 mg mL^−1, and dialyzed into the appropriate assay buffer.
Steady-state enzyme assays: Phosphodiesterase activity of ATX (75-100 nM) was measured by absorbance (λ=405 nm) on a SpectraMax 250 plate reader at 25° C. with the substrate pNP-TMP [36]. Reactions were run in assay buffer containing 10% DMSO (v/v) and 1 mg mL^−1 BSA (hexachlorophene, merbromin, and bithionol) or without BSA (NSC 48300, 2,2′-Methylenebis(4-chlorophenol), eosin Y, and RJC 03297) in a total volume of […]. The uncatalyzed reaction rate was ≦10^−7 s^−1 (data not shown).
The steady-state rates (v) of product formation were obtained by fitting the time courses of absorbance or fluorescence change to linear functions. Absorbance units were converted to p-nitrophenylate concentration using ε405 of 18.5 mM^−1 cm^−1 [39] and a measured path length of 0.494 cm. FS-3 hydrolysis product formation was quantitated in arbitrary fluorescence units.
The Michaelis constants (KM) and the catalytic turnover rate constants (kcat) were obtained by fitting the [substrate]-dependence of v to a rectangular hyperbola in the form of the Briggs-Haldane equation: […]
in which [S] is [pNP-TMP] or [FS-3]. Inhibitors were treated as reversible inhibitors and analyzed according to the general steady-state linear enzyme inhibitor scheme:
in which E is ATX, S is pNP-TMP or FS-3 substrate, P are the hydrolysis products, and K1 is the dissociation equilibrium constant for inhibitor binding. The values of α and K1 were obtained by fitting the steady-state rates of product formation (v) to the general inhibition equation: […]
in which [I] is the inhibitor concentration, kcat is the maximum catalytic turnover rate, and KS is the Michaelis constant of the substrate obtained in the absence of inhibitor.
The type of inhibition (competitive, noncompetitive, or uncompetitive) depends on the value of α.
The type of inhibition was assigned if the difference between the r^2 values of the fits to the general inhibition equation (Eq 2) and the specific inhibition (i.e. competitive, noncompetitive or uncompetitive) equations was less than 0.01.

[2] = tested on: human melanoma cell line (A2058); experiment: Boyden chamber cell migration assay, melanoma cells; format: cell-based; settings: A2058, 50 nM ATX, 4 hours
Protocol: (§1) All cell media was supplemented with 10% (v/v) fetal calf serum (FCS) (Gibco) and 1% (v/v) L-glutamine (Gibco) and grown at 37° C. in a humidified atmosphere containing 5% CO2.
The assay chambers are divided by a gelatin-coated membrane with […] pores (NeuroProbe). […] The chambers were then incubated at 37° C. for 4 hours, after which the filters were removed, fixed in 100% methanol, stained with a DiffQuick solution, and mounted onto glass slides. Non-migrating cells were removed from the membrane by scraping the top surface. The cells were quantitated by counting the cell number per high powered field in the various wells. Treatments were compared using a chi squared test.

A2058 melanoma cells = experiment: Matrigel cell invasion assay, melanoma cells; format: cell-based, human; settings: A2058, 50 nM ATX
Protocol: as §1
(§2) Cell invasion assays: Matrigel matrix (1 mg/ml, Becton Dickenson) was added to […] gelatin-coated membranes placed in cell culture inserts (BD Falcon) and allowed to set for 24 hours at room temperature. The inserts were placed into companion 24 well plates (BD Falcon), and chemo-attractants (ATX ±inhibitors) and/or controls were added to the bottom of the wells. Cells (1×10^6) were added to the inserts and incubated for 3 hours at 37° C. Following incubation, the inserts were removed, fixed in 100% methanol, stained with DiffQuick solution, and mounted on glass slides. Non-invading cells were removed by scraping away the matrigel, and migrating cells were quantitated by counting cell number per high-powered field.

[3] = tested on: ovarian carcinoma cells R182; experiment: Matrigel cell invasion assay, primary ovarian cancer cells; format: cell-based, human; settings: 50 nM ATX
Protocol: Cell culture: Human melanoma cells, A2058 (ATCC), were grown in Dulbecco's Modified Eagle's Medium (DMEM) (Gibco), MeI 28 (ATCC), YUSAC2 (Yale University) and MeI-888 (Yale University) were grown in OptiMEM media (Gibco), and HTB 63 (ATCC) were grown in McKoy's 5a medium (ATCC). Human breast adenocarcinoma cells, MDA-MB-231(ATCC) and ovarian carcinoma cells R182 (Gil Mor, Yale University) were grown in RPMI-1640 (Gibco). All cell media was supplemented with 10% (v/v) fetal calf serum (FCS) (Gibco) and 1% (v/v) L-glutamine (Gibco) and grown at 37° C. in a humidified atmosphere containing 5% CO2.
as §2

Compound	type of inhibition of ATX PDE activity [1]	α value from general steady-state inhibition equation (Eq. 2) [1]	Ki ([1]; read-out: KI (dissociation equilibrium constant for inhibitor binding), ATX PDE activity) [µM]	inhibition of ATX-induced stimulation of melanoma cell motility [2]	inhibition of ATX-induced stimulation of melanoma cell invasion (A2058 melanoma cells)	reduction of ATX-stimulated ovarian cancer cell invasion [3]	Ki ([1]; competitive inhibition equation (Eq. 3), read-out: KI, ATX PDE activity) [µM]	inhibition of ATX-induced stimulation of melanoma cell invasion (A2058 melanoma cells; listed as NSC48300)
Oc1c(Cl)cc(Cl)cc1Sc1cc(Cl)cc(Cl)c1O [Bithionol]	mixed, noncompetitive inhibition mechanism	3.0 (±2.3)	60	inhibited in a dose-dependent manner	inhibited in a dose-dependent manner; also recorded: could be reduced	could be reduced	–	–
O=[As](O)(O)c1ccc(Cc2ccc([As](=O)(O)O)cc2)cc1 [NSC 48300]	competitive inhibition	–	–	inhibited in a dose-dependent manner	inhibited in a dose-dependent manner	could be reduced	0.0475	could be reduced
